PMC9629855, “Development of ASIC1a ligand-gated ion channel drug screening assays across multiple automated patch clamp platforms” (Frontiers in Molecular Neuroscience, 2022)
Several values for one entry are separate records, joined by “and”; a condition that tells them apart may be missing. Identical values can stand only once.

Tests used:
Set-up in all cases: host or cells: CHO (tetracycline-inducible)
[1] = target: T1, hASIC1a (Homo sapiens, UniProt P78348); assay: QPatch 48 APC, CHO hASIC1a, multi-hole (10 hole X-plate) recordings; type: cell-based; conditions: multi-hole recordings, QPatch 48
T1 sequence (P78348 1-528): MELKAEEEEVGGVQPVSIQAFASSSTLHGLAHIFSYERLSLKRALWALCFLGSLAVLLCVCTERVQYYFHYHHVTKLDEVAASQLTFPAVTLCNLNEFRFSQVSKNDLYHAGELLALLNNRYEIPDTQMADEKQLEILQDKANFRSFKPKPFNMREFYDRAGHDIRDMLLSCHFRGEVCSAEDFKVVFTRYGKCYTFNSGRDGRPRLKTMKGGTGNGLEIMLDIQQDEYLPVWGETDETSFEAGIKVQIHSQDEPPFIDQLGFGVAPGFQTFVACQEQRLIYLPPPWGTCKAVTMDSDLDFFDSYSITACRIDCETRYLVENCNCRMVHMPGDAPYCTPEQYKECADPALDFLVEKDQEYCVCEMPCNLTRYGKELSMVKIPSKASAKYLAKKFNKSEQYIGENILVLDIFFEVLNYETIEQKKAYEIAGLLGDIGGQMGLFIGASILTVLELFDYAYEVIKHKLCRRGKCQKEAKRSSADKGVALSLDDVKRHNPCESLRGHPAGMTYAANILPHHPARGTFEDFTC
Method: (§1) CHO hASIC1a cells were cultured according to vendor instructions (B-SYS GmbH) and HEK cells using standard in-house methods. Both cell lines were harvested using optimized protocols and re-suspended in serum-free media (Gibco CHO-S-SFM from Thermo Fisher Scientific for CHO cells, and Ex-Cell 302 from Merck Sigma-Aldrich for HEK cells) to obtain a suspension of cells with smooth membranes and little debris, before transfer to the automated cell hotel consisting of a 60 ml plastic container (Sophion SB2050) and a magnetic stir bar to prevent cell clumping. An aliquot of cells is then aspirated into a 1 ml microcentrifuge tube and spun down (typically 150 g for 2.5 min) and the supernatant discarded before a user-defined volume of external solution is added by the robot and the cells re-suspended to achieve the desired final cell suspension density before application to primed QPlates. Cell capture, sealing and whole-cell access was achieved using optimized QPatch protocols before currents were recorded using a holding potential of −60 mV. […] Cells were washed three times with external pH 7.3 solution (5 μl) between applications of activating acidic solution to establish a stable ASIC1a current baseline. […] Each concentration of reference compound was applied to each cell before (i.e., during each pH 7.3 application period) and during each pH stimulus (IC50 mode). Thus, each concentration of test compound was pre-incubated with cells for at least 2 min before, and then during each acidic solution challenge, before wash-off in a neutral pH 7.3 solution that contained the next concentration of the same compound. Cells were allowed at least 2 min between applications of acidic solution to enable ASIC1a receptors to recover from desensitization.
(§2) Concentration-response xC50 curves from Patchliner and QPatch 48 experiments were calculated by plotting %inhibition (antagonists) or activation (pH) data against concentration in Prism software (GraphPad), using the variable sigmoidal dose-response function to fit the Hill equation with theoretical minimum block of 0% and maximum block of 100% and a free constant for Hill slope.
Before employing a more efficient multi-hole assay it is important to establish that this variant of the APC whole-cell recording format returns the same biophysics and pharmacology as single cell recordings. To this end we ran some of the reference compounds detailed above in 10 hole “X-plate” mode on the QPatch 48.

[2] = target: T1, hASIC1a; assay: cell-based; conditions: pH 6.5 agonist, QPatch 48 single hole
Method: as §1, §2
In addition, this protocol is designed to avoid tachyphylaxis associated with a more acidic pH stimulus, and it allows the development of a ligand-gated ASIC1a channel assay that can distinguish between agonists, partial agonists and antagonists. […] Compounds were tested using the cumulative concentration-response assay format shown in Figure 5A, which includes a 2 min pre-incubation period for each concentration to allow test samples to reach and equilibrate with their binding site(s) in the pore or large extracellular binding domain of ASIC1 receptor trimers. Agonist effects can also be detected during this period as membrane current data is recorded after every liquid addition. […] Mean inhibition data for each test sample is plotted against Log[compound] and fit with a concentration-response function.

[3] = target: T1, hASIC1a; assay: SyncroPatch 384i APC, CHO hASIC1a, puff / stacked puff application; type: cell-based; conditions: pH 6.5
Method: CHO cells expressing ASIC1a (Charles River) were induced using tetracycline 3–6 h prior to dissociation into a cell suspension.
For recordings of stability and pharmacology using a bolus or “puff” application of ligand, 5 μl of the agonist solution was aspirated and applied to the cell; liquid dispense speed can be set between 1 and 100 μl/s, and a setting of 40 μl/s was used in these experiments. Following agonist addition, 50 μl of the total 90 μl volume in each well is then taken up by the tip to remove most of the agonist solution from the cell. […] For stability experiments, pH 6.5 was applied to each cell followed by a wash with pH 7.4 solution and a wait of 140 s to remove agonist and reverse any desensitization, before a second application of pH 6.5 was made. This sequence was repeated 6–7 times on each cell. For pharmacology experiments, ASIC1a responses were evoked 3 times by pH 6.5 application followed by pre-incubation in the inhibitor for 140 s, after which the inhibitor was co-applied with a pH 6.5 stimulus. Cumulative concentration responses were obtained for each well using 3–4 incrementing concentrations of inhibitor. Concentration response curves for each well were constructed and mean ± S.E.M values for IC50 are given.
To assess the pH sensitivity of ASIC1a responses, pipette tips were loaded with 5 μl of pH 7.4 wash solution followed by 5 μl of activating extracellular solution (pH 7.2 to 4.8). For each sweep, the baseline current was recorded for 1 s in pH 7.4 control solution before the application of the 5-μl activating solution, and then the pH 7.4 wash solution was dispensed with a delay of 1 s to allow for recording of channel opening and desensitization in the presence of ligand before ligand wash-off. Application of the wash solution was followed by aspiration of liquid (50 μl of 90 μl total volume) from each well after a delay of 4 s, before a second wash step with pH 7.4 was performed prior to the application of the next activating pH (interval between stimuli 140 s). Each well received an addition of pH 6.5 solution followed by application of a test pH, and this sequence was repeated a second time to enable data from each cell to be normalized to the control pH 6.5 addition. The pH response curve was constructed across multiple wells with replicates of 48. Pharmacology experiments were performed as described above in “puff” application.
Concentration response curves were fit using a Hill Equation. Statistical comparison of IC50 values for Benzamil was performed using a Student’s t test in Igor Pro 8 (Wavemetrics). […] Z-Factor (Z‘) is calculated using the equation: […]

[4] = 1X single hole chip, Stacked Puff
[5] = 4X multi-hole chip, Stacked Puff

Row | Structure (SMILES) | Hill slope (Hn) [1] | Hill slope [2] | Hill slope ([3]; 1X single hole chip, Puff) | Hill slope [3, 4] | Hill slope ([3]; 4X multi-hole chip, Puff) | Hill slope [3, 5] | IC50 ([1]; read-out: IC50) | IC50 ([2]; 2 min pre-incubation, read-out: IC50 potency) | IC50 ([3]; 1X single hole chip, Puff) | IC50 [3, 4] | IC50 ([3]; 4X multi-hole chip, Puff) | IC50 [3, 5]
1 | N=C(N)NC(=O)c1nc(Cl)c(N)nc1N [Amiloride] | 0.91 | 0.9 | 1.20 ± 0.05 | 1.39 ± 0.02 | 1.19 ± 0.02 and 1.14 ± 0.01 | 1.24 ± 0.02 | – | – | – | – | – | –
2 | NC(=NCc1ccccc1)NC(=O)c1nc(Cl)c(N)nc1N [Benzamil] | 1.18 | 1.1 | 1.07 ± 0.02 | 1.26 ± 0.03 | 1.18 ± 0.03 and 1.12 ± 0.02 | 1.12 ± 0.02 | 3.49 µM | 4.66 µM | 1370 nM | 2480 ± 180 nM | 1430 nM and 1470 nM | 2200 ± 80 nM
